For data set [1], the target named is T1, Peroxisome proliferator-activated receptor alpha (Mus musculus, UniProt P23204).
T1 sequence (P23204 whole entry): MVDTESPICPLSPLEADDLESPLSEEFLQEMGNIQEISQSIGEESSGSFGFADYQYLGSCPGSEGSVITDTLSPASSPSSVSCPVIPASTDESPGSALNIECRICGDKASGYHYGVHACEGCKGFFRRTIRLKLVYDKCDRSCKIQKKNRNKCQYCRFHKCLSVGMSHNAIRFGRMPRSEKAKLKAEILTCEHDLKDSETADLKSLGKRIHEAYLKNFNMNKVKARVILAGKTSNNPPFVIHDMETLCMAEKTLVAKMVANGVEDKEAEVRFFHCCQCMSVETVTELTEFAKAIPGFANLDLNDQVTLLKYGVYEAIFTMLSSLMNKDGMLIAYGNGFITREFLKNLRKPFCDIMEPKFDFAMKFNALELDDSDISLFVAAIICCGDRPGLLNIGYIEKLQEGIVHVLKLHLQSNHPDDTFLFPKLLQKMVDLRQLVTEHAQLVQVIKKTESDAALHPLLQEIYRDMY
Description: Agonist potency at mouse PPARalpha

Data set [2] deals with Mus musculus. The experiment in a line: Decrease in LDL cholesterol level in human Apo-A-I transgenic C57BL/6 mouse at 0.5 mg/kg, po. Format: functional. The arrangement: scale not given: the % may be the effect or the level left.
The nature of data set [3]: Half life in Beagle dog plasma at 2 mg/kg, iv. Format: ADME, organism-based, Canis lupus familiaris. The arrangement: dose 2 mg/kg, route intravenous.
The target in data set [4] is T2, Peroxisome proliferator-activated receptor gamma (Mus musculus, UniProt P37238).
T2 sequence (P37238 whole entry): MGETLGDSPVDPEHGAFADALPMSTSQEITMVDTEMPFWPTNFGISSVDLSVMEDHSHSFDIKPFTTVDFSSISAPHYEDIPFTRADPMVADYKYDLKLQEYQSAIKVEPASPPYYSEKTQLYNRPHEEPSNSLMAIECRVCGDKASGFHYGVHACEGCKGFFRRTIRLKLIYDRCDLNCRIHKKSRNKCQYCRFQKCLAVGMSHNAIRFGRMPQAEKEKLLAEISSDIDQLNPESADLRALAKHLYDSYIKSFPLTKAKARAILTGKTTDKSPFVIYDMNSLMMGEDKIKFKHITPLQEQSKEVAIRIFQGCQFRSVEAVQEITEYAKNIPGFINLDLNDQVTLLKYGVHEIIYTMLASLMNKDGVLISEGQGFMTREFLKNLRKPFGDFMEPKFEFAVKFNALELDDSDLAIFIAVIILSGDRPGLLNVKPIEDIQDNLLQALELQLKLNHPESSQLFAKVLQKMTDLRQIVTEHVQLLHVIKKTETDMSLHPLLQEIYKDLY
Description: Agonist potency at mouse PPARgamma

The nature of data set [5]: Volume of distribution in Beagle dog at 2 mg/kg, iv. It is filed as ADME, organism-based, Canis lupus familiaris. The following applies: in vivo, read-out: Vdss. Set-up: dose 2 mg/kg, route intravenous.
Data set [6] in a line: Half life in Wistar rat plasma at 2.7 mg/kg, iv. It is filed as ADME, organism-based. Set-up: dose 2.7 mg/kg, route intravenous.
The subject of data set [7] is Mus musculus. The experiment in a line: Increase in HDL cholesterol level in human Apo-A-I transgenic C57BL/6 mouse at 0.5 mg/kg, po. Format: functional.
For data set [8], the system named is Mus musculus. Put plainly: Decrease in LDL cholesterol level in human Apo-A-I transgenic C57BL/6 mouse at 1 mg/kg, po. It is filed as functional. Set-up: scale not given: the % may be the effect or the level left.

Data on one compound can be found in ChEMBL document CHEMBL1141367, “Substituted 2-[(4-aminomethyl)phenoxy]-2-methylpropionic acid PPARalpha agonists. 1. Discovery of a novel series of potent HDLc raising agents” (J Med Chem, 2007).

A word on the EC50: it is the concentration that produces a half-maximal response. By half-life is commonly meant how long it takes for the measured level to halve. As for `Cc1nc(-c2ccc(C(F)(F)F)cc2)sc1C(=O)NCc1ccc(OC(C)(C)C(=O)O)cc1` [GW590735], the figures for the concentration giving a half-maximal response (EC50) in data set [1] and in data set [4] were 15 nM and above 10000 nM, respectively. Besides, the Activity was 61% in the data set on Mus musculus [2], 43% in the data set with Mus musculus [7] and 65% in the data set with Mus musculus [8]. For the same compound, the half-life was 2.6 h in data set [3] and 2.4 h in data set [6]. In addition, the Vd in data set [5] is 2.8 L/kg.
